According to publication PMC10480161, “Identification of potent and selective N-myristoyltransferase inhibitors of Plasmodium vivax liver stage hypnozoites and schizonts” (Nature Communications, 2023):
pIC50: −log10 of the molar value. Values joined by “and” are separate entries in the source; they are usually repeats but may differ in a detail not shown here. Identical values can stand only once. Like-named read-outs stand apart in the source and are kept apart here.

Legend:
HepG2 cells = test: HepG2 cytotoxicity assay (Live/Dead staining); details: for Percentage of live HepG2 cells compared with diluent controls: replicates
Experimental: Therefore, we assessed cytotoxicity in the human hepatoma HepG2 cell line. We required a PvNMT to HsNMT SI > 20 for further screening. HepG2 cells were exposed to the compounds at concentrations ranging from 1 to 20 µM for […], and toxicity was assessed via live-dead staining.
The viability of the HepG2 cell line following exposure to the compounds was determined by a Live/Dead cell assay kit (Invitrogen). Briefly, cells were added to a 96-well plate at a concentration of 5000 cells per well, excluding the exterior wells. Cells were exposed to the compounds at different concentrations ranging from 1 to 20 µM. Cells were washed every 24 h and supplemented with fresh doses of compounds. At 72 h post-treatment, 1 µM calcein-AM and 1 µM ethidium homodimer were added to the wells and incubated for 10 min at 37 °C. After washing with PBS, the cells were visualized with fluorescent microscopy (Keyence BZ-X700).

PvNMT = PvNMT (Plasmodium vivax, UniProt A5K1A2); test: NMT activity assay (CPM detection of free CoA), PvNMT; details: for SI: enzyme selectivity, HsNMT IC50/PvNMT IC50
Sequence of PvNMT (A5K1A2 entry or part of it): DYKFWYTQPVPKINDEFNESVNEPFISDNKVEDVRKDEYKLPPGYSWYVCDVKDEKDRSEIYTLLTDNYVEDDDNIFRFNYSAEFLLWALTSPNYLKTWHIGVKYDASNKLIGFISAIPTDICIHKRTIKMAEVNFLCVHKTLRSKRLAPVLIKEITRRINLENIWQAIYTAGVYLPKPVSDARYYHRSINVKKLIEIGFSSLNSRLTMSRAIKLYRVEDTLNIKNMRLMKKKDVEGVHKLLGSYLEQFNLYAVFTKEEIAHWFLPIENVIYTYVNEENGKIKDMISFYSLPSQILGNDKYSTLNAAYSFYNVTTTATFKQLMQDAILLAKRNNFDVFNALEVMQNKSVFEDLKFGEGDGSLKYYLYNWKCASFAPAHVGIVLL

P. vivax hypnozoites = test: P. vivax liver stage assay, hypnozoites; format: cell-based, Plasmodium vivax; details: for Hypnozoites per well: Isolate 2, replicate wells (Figure 6d); for Number of liverstage hypnozoites per well: 20 µM, 8 dpi; for pIC50: primary human hepatocytes, treatment day 5 to 8 post-infection, isolate 2
Experimental: Finally, we evaluated the NMT-binding compounds against non-developing P. vivax hypnozoites. […] (Fig. 6A). […] We, therefore, evaluated the impact of all tested compounds on P. vivax hypnozoites using these two isolates.
(§1) Plasmodium vivax liver stage assays were performed as described previously. Cryopreserved primary human hepatocytes (Cat No. F00995-P) and hepatocyte culture medium (HCM) (InVitroGroTM CP Medium) were obtained from Bioreclamation IVT, Inc., (Baltimore, MD, USA). Briefly, we seeded 384-well plates with primary hepatocytes from a single donor lot at a density of 25,000 cells per well. We then infected the hepatocytes with 14,000 freshly hand-dissected sporozoites per well. Cells were exposed to the compounds at indicated concentrations from day 5 post-infection. We used Pi4K inhibitor MMV390048, at 20 µM, as a positive control to eliminate P. vivax liver schizonts. We then proceeded to feed cultures every day, replacing the compounds until day 8 post-infection. Cells were fixed with 4% PFA, permeabilized with 1% Triton X-100, blocked with 2% BSA, and stained with DAPI and PvUIS4 antibodies to detect schizonts and hypnozoites forms by confocal microscopy. For antibody dilutions, PvUIS4 (kind gift from Dr. Noah Sather, Seattle Children’s Research Institute) was diluted 1:250 and the secondary antibody was anti-mouse AlexaFluor-594 (Cat # A-11005; RRID: AB_2534073) diluted 1:1000. DAPI was diluted 1:2000. The images were processed, analyzed and outlier cells were removed using IMARIS (Bitplane Inc.) image analysis software.

[1] = test system: primary human hepatocytes; test: Nuclear counts (DAPI) in P. vivax-infected primary hepatocytes as measure of toxicity; format: cell-based; details: two technical replicates
Experimental: Accordingly, we applied dose–response curves of all the tested NMTs on parasite isolates 2 and 3 over concentrations up to 20 µM (Fig. 5c, d, Source Data file). […] Nuclei were counted in each well using DAPI staining as a measure of toxicity (Supplementary Fig. 86, Supplementary Source data). We used the phosphatidylinositol 4-kinase inhibitor (PI4Ki), MMV390048, as a positive control for eliminating schizonts[37],[38].
as §1, with “For antibody dilutions, PvUIS4 (kind gift from Dr. Noah Sather, Seattle Children’s Research Institute) was diluted 1:250 and the secondary antibody was anti-mouse AlexaFluor-594 (Cat # A-11005; RRID: AB_2534073) diluted 1:1000.” left out
Supplementary Fig. 86. […] Nuclear […]
counts, normalized to DMSO controls, for NMT inhibitors across a dose response. Counts were ob-tained using DAPI staining from the P. vivax-infected wells quantified in Fig. 5d. Error bars represent the standard deviation of two technical replicates.
(1 picture or pasted object on this page, not shown here)

HsNMT1 = molecular target: T1, HsNMT1 (Homo sapiens, UniProt P30419); test: NMT activity assay (CPM detection of free CoA), HsNMT
T1 sequence (P30419 1-496): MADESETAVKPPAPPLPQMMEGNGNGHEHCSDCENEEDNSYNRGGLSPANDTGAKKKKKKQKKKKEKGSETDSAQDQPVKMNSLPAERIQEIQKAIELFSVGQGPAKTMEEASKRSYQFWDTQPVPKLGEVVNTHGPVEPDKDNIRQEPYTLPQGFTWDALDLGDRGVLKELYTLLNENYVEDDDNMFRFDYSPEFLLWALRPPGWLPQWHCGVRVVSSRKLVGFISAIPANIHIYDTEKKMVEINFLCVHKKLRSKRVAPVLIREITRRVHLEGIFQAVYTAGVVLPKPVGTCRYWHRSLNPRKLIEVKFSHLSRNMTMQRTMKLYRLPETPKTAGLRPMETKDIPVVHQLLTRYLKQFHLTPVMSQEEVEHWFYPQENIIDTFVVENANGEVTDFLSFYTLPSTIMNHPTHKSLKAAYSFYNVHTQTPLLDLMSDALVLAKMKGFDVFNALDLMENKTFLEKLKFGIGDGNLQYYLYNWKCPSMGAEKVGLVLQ

[2] = PvNMT IC50, mean of two or more determinations
[3] = isolate 1, technical replicates (Fig. 6C)
[4] = isolate 2, technical replicates (Fig. 6C)
[5] = isolate 3, technical replicates (Fig. 6C)
[6] = Plasmodium vivax, Hepatocyte, 120 h
[7] = read-out: PvNMT IC50, mean of two or more determinations
[8] = read-out: HsNMT IC50, mean of two or more determinations

Compound	Percentage of live HepG2 cells compared with diluent controls (HepG2 cells; 1 μM)	Percentage of live HepG2 cells compared with diluent controls (HepG2 cells; 2.5 μM)	Percentage of live HepG2 cells compared with diluent controls (HepG2 cells; 5 μM)	Percentage of live HepG2 cells compared with diluent controls (HepG2 cells; 10 μM)	Percentage of live HepG2 cells compared with diluent controls (HepG2 cells; 20 μM)	SI (PvNMT)	Hypnozoites per well (P. vivax hypnozoites; 1.25 uM)	Hypnozoites per well (P. vivax hypnozoites; 2.5 uM)	Hypnozoites per well (P. vivax hypnozoites; 5 uM)	Hypnozoites per well (P. vivax hypnozoites; 10 uM)	Number of liverstage hypnozoites per well (P. vivax hypnozoites; [3])	Number of liverstage hypnozoites per well (P. vivax hypnozoites; [4])	Number of liverstage hypnozoites per well (P. vivax hypnozoites; [5]) [per well]	Hypnozoites per well (P. vivax hypnozoites; 20 uM)	Nucleus counts per well ([1]; 1 uM)	Nucleus counts per well ([1]; 2.5uM)	Nucleus counts per well ([1]; 5 uM)	Nucleus counts per well ([1]; 10uM)	Nucleus counts per well ([1]; 20uM, P. vivax-infected wells)	hypnozoites (fold change to DMSO) mean diff (P. vivax hypnozoites; isolate 1, 20 µM)	further results
Cc1nn(C)c(C)c1CCOc1cccnc1-c1cccc(N2CCNCC2)c1 [Compound 12b]	108.074% and 106.671%	106.359% and 104.514%	106.385% and 94.2234%	92.0406% and 101.317%	83.7772% and 84.1151%	> 145 and > 150 and > 250	3 and 4 (2×)	3 and 4 (2×)	2 (2×) and 3	1 (2×) and 0	5 per well and 9 per well and 0 per well	1 per well and 0 per well (2×)	0	1 and 0 (2×)	16000 per well and 15090 per well	15680 per well and 16210 per well	15950 per well and 14130 per well	15200 per well and 15960 per well	12570 per well and 13810 per well		pIC50 (PvNMT; [2]): 7.10; pIC50 (P. vivax hypnozoites; [6]): 5.77; pIC50 (HsNMT1): 4.68
Cc1nn(C)c(C)c1CCOc1ccccc1-c1cccc(OCCN(C)C)c1 [Compound 26b]	97.4196% and 92.7163%	92.7942% and 91.1312%	90.5335% and 86.8176%	83.2575% and 84.0111%	77.3069% and 77.3588%	118.4	10 and 6 and 12	4 and 8 and 7	7 and 5 and 9	4 (2×) and 0	1 per well (2×) and 2 per well	3 per well and 1 per well and 2 per well	0	3 and 1 and 2	14910 per well and 16840 per well	13670 per well and 14610 per well	13920 per well and 13020 per well	12600 per well and 13580 per well	11600 per well and 12490 per well	0.908	pIC50 (PvNMT; [2]): 7.08; pIC50 (P. vivax hypnozoites; [6]): 5.34; hypnozoites (fold change to DMSO) mean diff (P. vivax hypnozoites; isolate 2, 20 µM): 0.793; pIC50 (HsNMT1): 5.01
Cc1n[nH]c(C)c1CCOc1cc(F)ccc1-c1ccnc(N2CCNCC2)c1 [Compound 12q]	99.2906% and 100.564%	95.6786% and 92.2225%	91.8587% and 84.219%	83.4135% and 96.0684%	80.0613% and 94.8991%	22	11 and 8 and 10	8 and 5 and 7	5 and 6 and 3	5 and 0 and 3	0 per well (2×) and 1 per well	1 per well (2×) and 0 per well	0	1 (2×) and 0	14830 per well and 14410 per well	12630 per well and 14350 per well	13780 per well and 14410 per well	15080 per well and 12510 per well	12010 per well and 14890 per well	0.939	pIC50 (HepG2 cells): < 4.70; pIC50 (PvNMT; [7]): 7.14; hypnozoites (fold change to DMSO) mean diff (P. vivax hypnozoites; isolate 2, 20 µM): 0.931; pIC50 (P. vivax hypnozoites): 5.36; pIC50 (HsNMT1; [8]): 5.79
Cc1nn(C)c(C)c1CCOc1ccc2ccccc2c1-c1ccnc(N2CCNCC2)c1 [Compound 30a]	103.422% and 100.304%	101.733% and 94.8731%	94.7431% and 110.101%	109.841% and 95.0809%	87.0514% and 94.4833%	269.8	6 and 9 and 13	5 and 0 and 3	2 (2×) and 0	1 and 0 and 2	0 per well	0 per well	0	0	15050 per well and 16480 per well	16520 per well and 15260 per well	14210 per well and 14260 per well	14230 per well and 14010 per well	13060 per well and 13510 per well	0.954	pIC50 (HepG2 cells): < 4.70; pIC50 (PvNMT; [7]): 7.05; hypnozoites (fold change to DMSO) mean diff (P. vivax hypnozoites; isolate 2, 20 µM): 1.000; pIC50 (P. vivax hypnozoites): 5.68; pIC50 (HsNMT1; [8]): 4.62
